Columns and labels:
Format in all cases: cell-based, human
CCRF-CEM cells = assay: Senescence gene qPCR array / RT-PCR; settings: array of 84 senescence genes, COL1A1 not validated by RT-PCR
Text: To further study the role of IRAK-1,-4 signaling in cellular senescence, we compared the expression of 84 key genes involved in the initiation and progression of senescence. […] Expression levels of CDKN1C, EGR1 and ID1 were also altered in all four T-ALL patient samples collected from IRAK-1,-4 inhibitor-treated NSG mice (FIG. 15E).

Malme-3M melanoma cells = assay: Apoptosis by annexin-V/PI flow cytometry in Malme-3M
Method: FIG. 8. IRAK-1,-4 inhibition sensitized melanoma cells to vinblastine-mediated cytotoxicity. (A) A375 and Malme-3M melanoma cells were cultured with or without 2.5 μM of IRAK-1,-4 and in the presence varying concentrations of vinblastine, cisplatin or 5′ Fluorouracil. Forty-eight hours later apoptosis was evaluated by staining cells with annexin-V and propidium iodide and analyzed by flow cytometry. (B) A375 cells were transfected via electroporation with siRNA-IRAK-1,-4. IRAK-1 protein levels were examined by Western blotting. […], A375-psiRNA-hIRAK-1, A375-psiRNA-hIRAK-4, or cells expressing both psiRNA-hIRAK-1 and -4 were cultured in the presence of vinblastine (100 nmol/L) for 48 hours and apoptosis was examined by flow cytometry. (C) A375 melanoma cells were cultured in the presence of vehicle alone (DMSO) or various concentrations of IRAK-1,-4. Forty-eight hours later cell lysates were used to analyze the expression of levels of cleaved PARP or caspase-3 by Western blots. (D) A375 melanoma cells were cultured with or without 2.5 μM of IRAK.-1,-4 and in the presence or absence of vinblastine for 48 hrs. PARP and caspase-3 levels were determined by Western blot.
The TLR1-TLR2 ligand tripalmitoyl-S-(bis(palmitoyloxy)propyl)-Cys-Ser-(Lys)3-Lys (Pam3Cys) was purchased from Invivogen (San Diego, Calif., USA). […] In some experiments cells were treated with the indicated concentrations of IRAK.-1,-4 inhibitor and vinblastine, cisplatin, and 5-fluorouracil (Sigma-Aldrich, St. Louis, Mo.), and apoptosis was quantitated by flow cytometry after staining cells with FITC-labeled annexin-V (BD Pharmingen, San Jose, Calif.) and propidium iodide (PI; Sigma-Aldrich).

CCRF-CEM = assay: Proliferation (3H-thymidine) of CCRF-CEM
Text: (§1) CCRF-CEM, CEM/C1, CEM/C2, CEM-C7, Jurkat, Loucy, Molt-4, HSB-2, SUP-T1, Hut 78, HH, Hut 102, MO, and H9 T-leukemia and T-lymphoma cell lines were purchased from the American Type Culture Collection (Manassas, Va., USA). All of the cell lines were initially expanded and cryopreserved within one month of receipt. Cells were typically used for 6 months at which time a fresh vial of cryopreserved cells was used. Total T cells from healthy donors were isolated via negative selection followed by positive selection using a CD3+ selection kit (Invitrogen, Carlsbad, Calif.). T cells were isolated from patients with T-ALL bone marrow or peripheral blood samples containing more than 70% leukemia cells using a CD2+ isolation kit (STEMCELL Technologies, Vancouver, Canada). All tissues were collected under institutional IRB-approved protocols and all participants gave written informed assent/consent. For in vitro experiments, T-ALL cells were cultured in AIM-V medium supplemented with 20% human AB serum in the presence of recombinant human stem cell factor (50 ng/mL; Amgen, Thousand Oaks, Calif.), insulin (20 nM; Sigma-Aldrich, St Louis, Mo., USA) and IL-7 (50 ng/mL; R&D Systems, Minneapolis, Minn., USA). In other experiments, protein lysate was collected using the Full Moon Biosystems (Sunnyvale, Calif., USA) buffer prior to protein examination by western blot or protein array.
Cells were cultured in a 96-well plate (Corning Costar, Corning, N.Y., USA) with various concentrations of TLR ligands 1-9, starting at 10 μg/ml, in a final volume of 200 ul. TLR ligands were diluted 2-fold. Cell lines (25-40×10^3/well) were cultured for 54 hours, whereas fresh patient-derived T-ALL cells (200×10^3/well) were cultured for 30 hours prior to adding [^3H]-thymidine for 18 hours. After this time point, cells were harvested with a Packard Filter-Mate-96 cell harvester (Perkin Elmer, Waltham, Mass., USA) and counted on Packard Top Count-NXT (Perkin Elmer, Waltham, Mass., USA). Results were expressed as average counts per minute (cpm). In some experiments CCRF-CEM cells were pre-treated with TLR1-TLR2 ligand (Pam3CysK4; 2.5 ug/ml) for 48 hrs, washed, and then cultured in the presence of varying concentrations of FBS. Forty-eight hours later, proliferation (±SD) was determined by ^3H-thymidine incorporation. Alternatively, apoptosis was measured by flow cytometry after staining cells with Annexin-V (BD Pharmingen, San Diego, Calif., USA) and propidium iodide (Sigma). Cell number was counted under microscopy by staining cells with trypan blue.
The following TLR ligands were purchased from Invivogen (San Diego, Calif., USA): tripalmitoyl-S-(bis(palmitoyloxy)propyl)-Cys-Ser-(Lys)3-Lys (TLR1-2); Poly I:C (TLR3); ultrapure S. Minnesota Lipopolysaccharide (TLR4); S. typhimurium flagellin (TLR5); FSL-1 (TLR2/6); Imiquimod (TLR7); ssRNA40/Lyovec (TLR8); CpG-ODN 2006 (TLR9).

Primary T-cells Non-Act = assay: Proliferation (3H-thymidine) of non-activated primary T-cells; settings: 3H-thymidine uptake, 72 h
Text: as §1, with “In other experiments, protein lysate was collected using the Full Moon Biosystems (Sunnyvale, Calif., USA) buffer prior to protein examination by western blot or protein array.” left out
Cells were cultured in a 96-well plate (Corning Costar, Corning, N.Y., USA) with various concentrations of TLR ligands 1-9, starting at 10 μg/ml, in a final volume of 200 ul. […] After this time point, cells were harvested with a Packard Filter-Mate-96 cell harvester (Perkin Elmer, Waltham, Mass., USA) and counted on Packard Top Count-NXT (Perkin Elmer, Waltham, Mass., USA). Results were expressed as average counts per minute (cpm). […] Forty-eight hours later, proliferation (±SD) was determined by ^3H-thymidine incorporation. Alternatively, apoptosis was measured by flow cytometry after staining cells with Annexin-V (BD Pharmingen, San Diego, Calif., USA) and propidium iodide (Sigma). Cell number was counted under microscopy by staining cells with trypan blue. […]

## O=C(Nc1nc2ccccc2n1CCN1CCOCC1)c1cccc([N+](=O)[O-])c1 [IRAK-1,-4 inhibitor]
CCRF-CEM cells
  expression of CDKN1C, COL1A1, EGR1, ID1, PLAU and SERPINES: significantly up- or down-regulated
Malme-3M melanoma cells; Malme3M, IRAK-1,-4 inhibitor with 0-100 nmol/L 5′-fluorouracil
  apoptosis with 5′-fluorouracil: appeared to enhance apoptosis
Malme-3M melanoma cells; Malme-3M, 2.5 μmol/L IRAK-1,-4 inhibitor with 0-200 nmol/L vinblastine, 48 h
  sensitivity to vinblastine (apoptosis): increased sensitivity
Malme-3M melanoma cells; Malme-3M, IRAK-1,-4 inhibitor with 0-50 nmol/L cisplatin
  cisplatin's cytotoxicity: did not increase
CCRF-CEM; IRAK-1,-4 inhibitor 5 μM with TLR1-TLR2 agonist 1 μg/ml, 48 h, FIG. 3A
  reduction of proliferation of TLR1-TLR2-stimulated cells: 72%
CCRF-CEM; concentration-dependent, 48 h, FIG. 3B
  lowest concentration effective in reducing proliferation: 1.5 µM

## tripalmitoyl-S-(bis(palmitoyloxy)propyl)-Cys-Ser-(Lys)3-Lys [Pam3Cysk4]
Primary T-cells Non-Act
  Proliferative effects of TLR ligands: ∘
CCRF-CEM; 3H-thymidine uptake, 72 h
  Proliferative effects of TLR ligands: + (enhanced proliferation by 25% or greater)
CCRF-CEM; FIG. 1A
  concentration at which cells proliferated in response to the ligand: 1.2 µg/mL
  effect on proliferation (in words): proliferated
CCRF-CEM; no unit in table (μg/ml)
  TLR ligand concentration in parentheses below the symbol: (1.2)

Source: patent publication US9464326B2, “Total and phosphorylated IL-1 receptor-associated kinase-1 and IL-1 receptor-associated kinase-4 as a biomarker for cancer progression and chemotherapy resistance” (University of Maryland, Baltimore, priority 2012, dated 2016)
